Measurements published in patent US12129509B2, “Apparatus, systems, and methods for determining the susceptibility of infectious agents to anti-infectives” (priority 2018, dated 2024).
In brackets after ≈: the same amount, converted by molar mass.

Key:
[1] = test system: E. coli of an unknown strain; test: pH growth curves of E. coli with Levofloxacin in diagnostic device 102 (FIG. 6); type: cell-based; details: Escherichia coli, E. coli diluted in Mueller Hinton broth, wells with 1, 2 and 4 μg/mL, read-out: minimum inhibitory concentration (MIC)
From the text: FIG. 6 illustrates pH growth curves of E. coli in the presence of various concentrations of the antibiotic Levofloxacin. The growth curves were generated using a computing device 158 coupled to a parameter analyzer 156 coupled to the diagnostic device 102. Similar types of growth curves can also be generated using the computing device 158 coupled to the parameter analyzer 156 coupled to the diagnostic device 202. An inoculum solution 110 comprising E. coli of an unknown strain (diluted in Mueller Hinton (MH) broth) was introduced to the sample receiving space 112 of the diagnostic device 102. The inoculum solution 110 was allowed to fill the plurality wells 120 of the diagnostic device 102 including the growth control wells 134 and a number of active electrode wells 136. A water immiscible liquid 152 was then introduced into the sample receiving space 112 to seal the wells 120 and the entire diagnostic device 102 was incubated at an elevated temperature. The computing device 158 generated the growth curves based on a change in the pH of the inoculum solution 110 within a growth control well 134 and three active electrode wells 136. The growth control well 134 comprised a pH electrode 130 within the well and was devoid of the antibiotic. […]

[2] = test system: E. coli of an unknown strain; test: pH and ORP growth curves of E. coli with Ciprofloxacin in diagnostic device 102 (FIGS. 7A and 7B); type: cell-based
From the text: FIGS. 7A and 7B illustrate pH growth curves and ORP growth curves of E. coli in the presence of various concentrations of the antibiotic Ciprofloxacin, respectively. The growth curves were generated using a computing device 158 coupled to a parameter analyzer 156 coupled to the diagnostic device 102. Similar types of growth curves can also be generated using the computing device 158 coupled to the parameter analyzer 156 coupled to the diagnostic device 202.
An inoculum solution 110 comprising E. coli of an unknown strain (e.g., a positive blood culture (PBC) diluted to 5×10^5 colony-forming units (CFU)/mL of E. coli in Mueller Hinton (MH) broth) was introduced to the sample receiving space 112 of the diagnostic device 102. The inoculum solution 110 was allowed to fill the plurality wells 120 of the diagnostic device 102 including the growth control wells 134 and a number of active electrode wells 136. A water immiscible liquid 152 was then introduced into the sample receiving space 112 to seal the wells 120 and the entire diagnostic device 102 was incubated at an elevated temperature.
The computing device 158 generated the growth curves based on changes in the solution characteristics (e.g., changes in pH of the pH electrode wells 126 and changes in ORP of the ORP electrode wells 128) of the inoculum solution 110 within the growth control wells 134 and the various active electrode wells 136. The growth control wells 134 comprised at least one pH electrode well 126 and at least one ORP electrode well 128 devoid of the antibiotic. The active electrode wells 136 comprised dried Ciprofloxacin at concentrations of 2 μg/mL, 4 μg/mL, 8 μg/mL, 16 μg/mL, and 32 μg/mL.
This curve pattern or shape can be attributed to cellular activity undertaken by the active E. coli within the growth control wells 134. FIGS. 7A and 7B also illustrate that the three growth curves generated from measurements of the inoculum solution 110 within the active electrode wells 136 comprising 2 μg/mL and 4 μg/mL of Ciprofloxacin mimicked and followed the growth pattern of the inoculum solution 110 within the growth control wells 134.

SMILES: C[C@H]1COc2c(N3CCN(C)CC3)c(F)cc3c(=O)c(C(=O)O)cn1c23 [Levofloxacin]
- MIC [1]: 1 µg/mL (≈ 2.77 µM)

SMILES: O=C(O)c1cn(C2CC2)c2cc(N3CCNCC3)c(F)cc2c1=O [Ciprofloxacin]
- susceptibility of the strain at the concentration ([2]; Ciprofloxacin 2 μg/mL and 4 μg/mL, curves followed growth control): resistant or not susceptible
- susceptibility of the strain at the concentration ([2]; Ciprofloxacin 8 μg/mL, delayed change in pH and ORP): intermediate susceptibility
- growth of E. coli in active electrode wells ([2]; Ciprofloxacin 16 μg/mL and 32 μg/mL, curves substantially flat lines): no noticeable growth
- susceptibility of the strain (overall) ([2]; based on MIC from pH and ORP growth curves): generally resistant
